Converted amounts (≈) assume the structure as drawn.

In this experiment the test system is Staphylococcus epidermidis TB-172. Kind of experiment: MIC by agar dilution method. The class given is cell-based. To be noted: TB172, tobramycin resistant strain, innoculum size 10^4 CFU/ml, 37° C., 18 to 20 hours, read-out: Minimum Inhibitory Concentration (MIC). Background: In agar dilution, organisms are placed on agar that contains the substance at set levels.

Turning to `NC[C@H]1O[C@H](O[C@H]2[C@H](O)[C@@H](O[C@H]3O[C@H](CO)[C@@H](O)[C@H](N)[C@H]3O)[C@H](N)C[C@@H]2N)[C@H](N)C[C@@H]1O` [TOB, tobramycin], the MIC was determined as 25 µg/mL (≈ 53.5 µM).

For the compound `NCC1=CC[C@@H](N)[C@@H](O[C@H]2[C@H](O)[C@@H](O[C@H]3O[C@H](CO)[C@@H](O)[C@H](N)[C@H]3O)[C@H](N)C[C@@H]2N)O1` [[A], O-[3-amino-3-deoxy-α-D-glucopyranosyl-(1→6)]-O-[2,6-diamino-2,3,4,6-tetradeoxy-α-D-glycero-hex-4-enopyranosyl-(1→4)]-2-deoxy-D-streptamine], the MIC is 0.1 µg/mL (≈ 0.222 µM).

Values taken from patent US4273923A, “Process for preparing aminoglycoside derivatives” (Shionogi & Co., Ltd., priority 1979, dated 1981).
